According to patent publication EP2487185A1, “Hexapeptide with improved activity in the repair of cellular DNA of dermal cells” (Clinuvel Pharmaceuticals Limited, priority 2011, dated 2012):
Non-standard residues stand in square brackets, D forms with d. Nle = CCCC[C@H](N)C(=O)O

What was measured:
human melanocytes = assay: DNA damage as measured by 8-oxo-dG (FITC-conjugated 8-oxo-dG antibody immunofluorescence); assay type: cell-based; details: for 8-oxo-dG, Arbitrary units: 37 Celsius, mean fluorescence intensity
Description: DNA damage of cultured melanocytes following UV irradiation leads to consistent levels of photoproducts such as 8-oxo-dG. It is well established in the art (dermal carcinogenesis) that 8-oxodG is a major form of UV induced oxidative DNA damage, which results from the generation of reactive oxygen species (ROS). The induction of 8-oxodG by 8-oxo-dGTP can be inhibited by pyrophosphohydrolases (8-[…]) that convert it to 8-oxo-dGMP. To elucidate the involvement of 8-oxo-[…] in carcinogenesis, an assay of the 8-oxo-[…] activity was used (Sigma Chemical Co. (USA) as well as a conjugated 8-oxo-dG antibodies (OxoDNA Assay Kit; Calbiochem/EMD Biosciences). Melanocytes were plated onto coverslips, and treated 48 h thereafter for 4 days prior to, and immediately after irradiation with 0 or 105 mJ/cm^2 UV, 0.1-10.0 nM α-MSH, with 0 (control) or 0.1-10.0 nM α-MSH, or 0.001-10 nM NDP-MSH or 0.001-10.0 nM CUV 9900. Two hours after UV exposure, cells were fixated with 4% paraformaldehyde in PBS, hydrated in increasing concentrations of cold methanol, and permeabilized in 99% methanol for 30 min at 4 °C. Melanocytes were incubated in blocking solution at 37 °C for 1 h and then with FITC-conjugated 8-oxo-dG antibody, or mouse IgG as a negative control, at 37 °C for 1 h. The IgG controls were then incubated with FITC-conjugated anti-mouse antibody. Immunofluorescence was detected using a microscope with FITC filters. Data were expressed as the mean fluorescence intensity ±S.E., determined using the densitometry values from 6-8 randomly obtained images, using the computer assisted program Alpha Inotech Imaging System and the AlphaEase FC StandAlone Software.

melanocyte strain 102b = assay: Tyrosinase activity, dose-response, 6 days treatment; assay type: cell-based, human
Experimental: Cell numbers as well as tyrosinase activity were then determined. Tyrosinase activity was calculated first at activity/10^6 cells, and then as % of control. Twenty-four hours prior the end of the experiment, melanocytes received ^3H-tyrosinase (0.7 µCi/ml medium). The conditioned medium from each dish was collected to be assayed for tyrosinase activity, and the cell numbers were determined using a Coulter Counter. Triplicate dishes were included in each group, and duplicate samples from each dish were assayed for tyrosinase activity. Each data point is the mean percent of control of 6 determinations/group ±S.E.

melanocyte strain 1513c [1] = assay: Tyrosinase activity as a measure of stability / residual effect; assay type: cell-based, human; details: for Tyrosinase activity, column 3: 4 days after peptide removal
Experimental: To determine the residual effect of CUV9900, as compared to NDP-MSH and α-MSH, on tyrosinase activity, melanocytes were treated with either CUV9900 or NDP-MSH at the concentrations previously described for a total of 3 days. Tyrosinase activity was measured at the end of the 3 days of treatment, and 2 and 4 days after maintenance of the melanocytes in the complete absence of any treatment. With continued reference to Figs. 7, 8 and 9, to determine the stability of CUV9900 versus that of NDP-MSH and α-MSH, melanocytes were treated with 1 nM of each peptide, namely with CUV9900, NDP-MSH and α-MSH, for a total of 6 days, or with 1 nM peptides that were incubated for 5 hours at 37 °C prior to addition to the cultures, every other day, for a total of 6 days. Tyrosinase activity was measured at the end of treatment. In the experiments, cell number represents the mean percent of control of 3 determinations/ group ±SE, and tyrosinase activity data represent the mean percent of control of 6 determinations ±S.E. It should be noted that for the sake of reproducibility the experiment of strain 1513c of Fig. 9 was performed once more 6 months later than the experiment of Fig. 7. […] Melanocytes were treated for 3 days with the designated concentrations of CUV9900, NDP-MSH, or MSH, then maintained in absence of peptides for 4 days. Tyrosinase activity was determined 3 days after treatment. Comparison of stability of CUV9900, NDP-MSH and MSH was compared in 1513c, as shown in Fig. 7; the strain was treated for 6 days with 1 nM CUV9900, NDP-MSH or MSH with fresh medium and peptide replenished every 2 days. Melanocytes were treated according to the same experiment protocol but each peptide was incubated for 5-7 hours at 37 degrees Celsius. […] The assessment of tyrosinase was statistically different from control, as determined by ANOVA (p=<0.05).

melanocyte strain 1513c [2] = assay: Cell proliferation as a measure of stability; assay type: cell-based, human; details: for Cell proliferation, column 2: column 2, not defined; for Cell proliferation, Mean [1+2]: STRAIN 1513c, mean over experiments [1] and [2]
Experimental: With continued reference to Figs. 7, 8 and 9, to determine the stability of CUV9900 versus that of NDP-MSH and α-MSH, melanocytes were treated with 1 nM of each peptide, namely with CUV9900, NDP-MSH and α-MSH, for a total of 6 days, or with 1 nM peptides that were incubated for 5 hours at 37 °C prior to addition to the cultures, every other day, for a total of 6 days. Tyrosinase activity was measured at the end of treatment. In the experiments, cell number represents the mean percent of control of 3 determinations/ group ±SE, and tyrosinase activity data represent the mean percent of control of 6 determinations ±S.E. It should be noted that for the sake of reproducibility the experiment of strain 1513c of Fig. 9 was performed once more 6 months later than the experiment of Fig. 7.
Peptides were incubated at 37 degrees Celsius for 5 hours and then split into groups. Cell proliferation was a measure of stability, whereby the experiments on strain 1513c were divided in period 1 and 2 under standard conditions.

melanocytic strain 1505b = assay: UV-induced generation of hydrogen peroxide (luminol luminescence); assay type: cell-based, human; details: for UV-induced hydrogen peroxide generation: strain 1505b, 105 mJ/cm^2 UV, 0, 30 and 45 minutes after UV
Description: With reference to Figs. 10 and 11, melanocytes were irradiated with a bank of FS 20 lamps, with 75% emission in the UVB, and 25% emission in the UVA spectra, with peak emission at 313 nm wavelength. Any emission of UVC rays from the UV source (FS 20 lamps) was blocked by Kodacel filter. Prior to irradiation, the culture medium was replaced by PBS, which was removed after UV exposure, and fresh medium added.
Melanocytes were irradiated with 105 mJ/cm^2 UV, and treated immediately while in PBS with 0, 1 nM α-MSH or 1 nM CUV9900. Generation of hydrogen peroxide, representative of reactive oxygen species (ROS), was determined by measuring the luminescence of luminol at 0, 30, and 45 min after UV exposure. Triplicate dishes were included in each group, and duplicate samples from each dish were used for measurement of hydrogen peroxide at each time point. Each data point represents the mean of 6 determinations/group ±S.E.

[3] = 75%UVB 25% UVA, 105 mJ/cm^2, 2 h after UV
[4] = STRAIN 1513c [1], Table 4 (Fig. 7), 1nM, after 3 days of treatment
[5] = STRAIN 1513c [1], Table 4, 1nM, column 2, apparently 2 days after removal of peptides
[6] = STRAIN 1513c [2], Table 5 (Fig. 9), 1 nM, 6 days, fresh peptide
[7] = STRAIN 1513c [2], Table 5, 1 nM, 6 days, peptide incubated 5-7 hours at 37 degrees Celsius
[8] = over the 2 experiments in strain 1513c
[9] = STRAIN 1513c [1], Table 1, mean of columns 1-3
[10] = STRAIN 1513c [2], Table 2, mean

Row | minimal effective dose (tyrosinase activity) (melanocyte strain 102b; 6 days treatment) [pM] | Tyrosinase activity, column 1 (melanocyte strain 1513c [1]; [4]) | Tyrosinase activity, column 3 (melanocyte strain 1513c [1]; STRAIN 1513c [1], Table 4, 1nM) | Tyrosinase activity, column 2 (melanocyte strain 1513c [1]; [5]) | Tyrosinase activity, column 1 (melanocyte strain 1513c [1]; [6]) | Tyrosinase activity, column 2 (melanocyte strain 1513c [1]; [7]) | Tyrosinase activity, Mean (melanocyte strain 1513c [1]; STRAIN 1513c [2], Table 5) | Substance | 8-oxo-dG, Arbitrary units (human melanocytes; [3]) | Cell proliferation, column 2 (melanocyte strain 1513c [2]; STRAIN 1513c [1], Table 1, 1nM) | Cell proliferation, Mean (melanocyte strain 1513c [2]; [9]) | Cell proliferation, column 2 (melanocyte strain 1513c [2]; STRAIN 1513c [2], Table 2) | Cell proliferation, Mean (melanocyte strain 1513c [2]; [10]) | Cell proliferation, Mean [1+2] (melanocyte strain 1513c [2]; Table 2) | UV-induced hydrogen peroxide generation (melanocytic strain 1505b; 1 nM) | also measured
1 | 1 | 284 % of control | 160 % of control | 203 % of control | 385.1 % of control | 388.7 % of control | 386.9 % of control | Ac-Nle-Glu His-D-Phe-Arg-Trp-NH2 (Ac-[Nle]EH[dF]RW-NH2; SMILES CCCC[C@H](NC(C)=O)C(=O)N[C@@H](CCC(=O)O)C(=O)N[C@@H](Cc1c[nH]cn1)C(=O)N[C@H](Cc1ccccc1)C(=O)N[C@@H](CCCNC(=N)N)C(=O)N[C@@H](Cc1c[nH]c2ccccc12)C(N)=O) [CUV9900, hexapeptide, alpha-MSH analogue] | 38 a.u. | 108 % of control | 110.7 % of control | 119.8 % of control | 119.9 % of control | 114.3 % of control | significant reduction of UV-induced hydrogen peroxide generation | less damage than UV alone (8-oxo-dG) (human melanocytes): 120%; 8-oxo-dG, Arbitrary units (human melanocytes; Source None (no UV irradiation)): 30 a.u.; stimulation of tyrosinase activity, comparison with NDP-MSH (melanocyte strain 102b; subnanomolar concentrations): greater stimulation of tyrosinase activity than NDP-MSH; superior stability over MSH (tyrosinase activity) (melanocyte strain 1513c [1]; [8]): 55.3%; superior stability over NDP (tyrosinase activity) (melanocyte strain 1513c [1]; [8]): 15.7%; effect of incubation of the peptide on stimulation of tyrosinase activity (melanocyte strain 1513c [1]; strain 1513c, 1 nM peptide incubated 5-7 hours at 37 degrees Celsius): no effect on its ability to stimulate tyrosinase activity; reducing the generation of hydrogen peroxide, comparison to NDP-MSH and MSH (melanocytic strain 1505b; at 45 minutes after UV): most effective at reducing the generation of hydrogen peroxide; hydrogen peroxide generation, comparison (melanocytic strain 1505b; at 45 minutes after irradiation, 1 nM, strain not given): lower hydrogen peroxide generation in comparison with both NDP-MSH and MSH
2 | 1 | 302 % of control | 164 % of control | 203 % of control | 329.9 % of control | 229.2 % of control | 279.6 % of control | Ac-Ser-Tyr-Ser-Nle-Glu-His-D-Phe-Arg-Trp-Gly-Lys-Pro-Val-NH2 [NDP-MSH, reference compound] | 39-40 a.u. | 115 % of control | 112.7 % of control | 117.5 % of control | 115.0 % of control | 113.6 % of control | significant reduction of UV-induced hydrogen peroxide generation | concentration achieving equal maximal stimulation of tyrosinase (melanocyte strain 102b; 6 days treatment): 1 nM
